Source: patent US8362070B2, “Application of puerarin in the preparation of P2X3 mediated drugs for pain/nervous system diseases” (Nanchang University, priority 2009, dated 2013)

Tests used:
[1] = molecular target: T1, P2X3 receptor (Rattus norvegicus, UniProt P49654); experiment: Whole-cell patch clamp of ATP or α,β-meATP activated current in DRG neurons of CCI rats; assay type: cell-based; conditions: for DRG neurons sensitive to exogenous ATP: ATP 1-1000 μmol/L; for α,β-meATP-activated electric current in DRG neurons: α,β-meATP 10 μmol/L
T1 construct: The method for neuron sample isolated from DRG of rats was briefly described as below; endogenous in cells; host or cells: acutely dissociated L4/L5 DRG neurons of SD rats
T1 sequence (P49654 1-397): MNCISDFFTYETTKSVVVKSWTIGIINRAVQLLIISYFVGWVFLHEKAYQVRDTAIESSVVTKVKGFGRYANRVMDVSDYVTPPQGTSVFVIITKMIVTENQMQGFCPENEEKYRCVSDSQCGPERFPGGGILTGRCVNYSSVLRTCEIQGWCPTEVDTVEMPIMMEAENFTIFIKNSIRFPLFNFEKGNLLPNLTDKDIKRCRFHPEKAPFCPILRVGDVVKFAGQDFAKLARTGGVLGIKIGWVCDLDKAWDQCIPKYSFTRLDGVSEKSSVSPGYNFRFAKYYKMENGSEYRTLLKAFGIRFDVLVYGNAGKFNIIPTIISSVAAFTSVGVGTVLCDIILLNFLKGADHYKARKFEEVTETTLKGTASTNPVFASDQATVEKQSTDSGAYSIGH
Description: The method for neuron sample isolated from DRG of rats was briefly described as below: the rats were knocked down and their skin in the back was cut open rapidly after decollation. The ribs that were connected to the spinal column at both sides were cut apart and the thoracolumbar spine was taken out and cut in half through the middle of the spine. The samples were kept in O2 saturated DMEM solution (Dubecco's Modified Eagle's medium), pH 7.40, and the osmotic pressure of this solution was 340 mOsm/kg. The sections L4 and L5 of nerve ganglion and connected nerve roots (dorsal nerve roots and ventral roots) as well as the spinal nerves were taken out inside the open vertebral canal, the connected nerves and adjacent connective tissue capsule were carefully removed by using fine corneal scissors and hairspring tweezer under an anatomical microscope, and the cleaned DRG should be cut into small pieces as far as possible and transferred to a culture flask, trypsin (type III, sigma) 0.5 g/L and collagenase (type IA, sigma) 1.0 g/L was then added, and the culture flask was incubated in a constant temperature shaking water bath (35 °C, 80 times/min) for 20-30 minutes, then proper amount of Soya beam trypsin inhibitor (type […]-s, Sigma) was added to stop the enzymatic digestion. The DRG cells after the above mentioned enzymatic and mechanical isolation were transferred to 35 mm culture dishes, and then they were kept still on the object stage of an inverted microscope for solution change for 30 minutes, subsequently the whole-cell patch clamp technique was utilized to record the effects of puerarin on ATP or α,β-meATP activated electric current. • (1) Carefully examining the connection and original setting of equipments in the experimental system. • (2) Turning on the power switch. • (3) Electrode installation: connecting the reference electrode, filling the glass electrode and then installing it on the electrode clamp holder. Notice: the electrode should not be over-filled; contacting the shielding can with hands before installing the electrodes in order to release the static electricity on the body. • (4) Phase boundary potential compensation and electrode resistance determination: filling solution in the microelectrode under the “searching” mode, adjusting the phase boundary potential compensation and measuring electrode resistance according to the responsive amplitude of electric current that was induced by pulsed voltage square wave. • (5) Cell sealing: adjusting the micro-operator to get the tip of the microelectrode close to the surface of the cell and a negative pressure is produced in the micro-electrode and thus the Giga-Ohm seal was formed. • (6) Rapid electric capacity compensation: adjusting the rapid electric capacity compensation and making the output signal free of ingredients of rapid electric capacitive current. • (7) Absorbing the cell membrane until it was disrupted: the working mode was switched to “forcipressure”. The membrane was absorbed until it was disrupted after the high resistance sealing was formed between the electrode and the cell (1-10 GΩ). The holding potential (H.P) was kept at −60 mV, and low pass membrane current was used (1 kHz, −3 dB). • (8) Slow capacitive compensation: adjusting the slow capacitive compensation and making the output signal free of ingredients of slow electric capacitive current. Tandem resistance compensation: adjusting the tandem resistance compensation until no shock was produced. The equipment for record of patch clamp was CEZ-2400 type patch clamp amplifier (Nihon-Kohden, Japan). The membrane was further absorbed until it was disrupted after the high resistance formed between the electrode and the cell membrane (1˜10 GΩ), and the capacitance and the tandem resistance compensation were adjusted. The holding potential (HP) was kept at −60 mV, low pass membrane current was used (1 kHz, −3 dB). The experimental results were traced by using the two-way recorder (LMS-2B, Chengdu). […]

[2] = system: rats that suffer from superficial second degree foot burn; experiment: Thermal hyperalgesia (thermal withdrawal latency) in rats with foot burn; assay type: in vivo, rat; conditions: for thermal withdrawal latency (TWL) in comparison to group III (burn) / thermal withdrawal latency (TWL) after 144 hours: superficial second degree foot burn + drug; for thermal withdrawal latency (TWL) in comparison to group III (burn): 24 hours after burn, p<0.01
Description: Male SD rats, 220-250 g, 60 rats were included, which were provided by the Department of Experimental Animals from the Medical College of Nanchang University, and the animals were divided into different groups at random. Group I was the group of sham burn in skin of feet; group II was the group of puerarin injection+first degree or superficial second degree burn in skin of feet; group III was the group of physiological saline+first degree or superficial second degree burn in skin of feet; group IV was the group of sham burn in skin of back; group V was the group of puerarin injection+first degree or superficial second degree burn in skin of back; group VI was the group of physiological saline+first degree or superficial second degree burn in skin of back. Puerarin injection was dissolved in physiological saline and the concentration was 50 mg/mL. vena caudalis injection of 4 mL/kg physiological saline was carried out for the rats in group III and […] 0.5 h before burn, and the injection was carried out once a day until the termination of the test; […], and the injection was carried out once a day until the termination of the test; skin of feet or back of the rats from group I and group IV (the sham burn group) were immersed in warm water of 37° C. for 8 seconds.
After the rats were anesthetized by ether, their right posterior feet were immersed in hot water of 70° C. for 5 seconds or 8 seconds, then they were raised in separate cages after burn. The mechanical withdrawal threshold and the thermal withdrawal threshold in their right posterior feet were measured respectively before burn (Oh) and 1, 24, 48, 72, 96, 120, 144 hours after burn (the room temperature was maintained at 22±0.5° C.).
The organic glass box was placed on a glass plate of 3 mm thick and BME-410C type automatic thermalgia stimulator was used to irradiate the footplates of rats. The time for the appearance of leg withdrawal after the irradiation on footplates of rats by using the thermal radiation stimulator was considered as the thermal withdrawal latency (TWL). The time for cutting off was 25 seconds in order to prevent burn on tissues.
The organic glass box was placed on a glass plate of 3 mm thick and BME-410C type automatic thermalgia stimulator (Institute of Biomedical Engineering, Chinese Academy of Medical Sciences) was used to irrdiate the footplates of rats. The time for the appearance of leg withdrawal after the irradiation on footplates of rats by using the thermal radiation stimulator was considered as the thermal withdrawal latency. The time for cutting off was 30 seconds in order to prevent burn on tissues.

ATP-activated electric current in DRG neurons in comparison to CCI group ([1]; CCI rats + Indocin, p<0.05)	DRG neurons sensitive to exogenous ATP ([1]; CCI rats + drug)	α,β-meATP-activated electric current in DRG neurons ([1]; CCI rats + drug)	ATP-activated electric current in DRG neurons in comparison to the idomethine treatment group ([1]; CCI rats + puerarin, p<0.05)	ATP-activated electric current in DRG neurons, difference from groups I, II and V ([1]; CCI rats + puerarin, p>0.05)	DRG neurons sensitive to exogenous ATP ([1]; puerarin alone, no CCI)	α,β-meATP-activated electric current in DRG neurons ([1]; puerarin alone, no CCI)	Structure (SMILES)	thermal withdrawal latency (TWL) in comparison to group III (burn) [2]	thermal withdrawal latency (TWL) after 144 hours ([2]; p>0.05)	thermal withdrawal latency, comparison among sham, puerarin alone and control ([2]; puerarin alone i.p., no burn, p>0.05)
decreased	89.7%	extremely low inward current					COc1ccc2c(c1)c(CC(=O)O)c(C)n2C(=O)c1ccc(Cl)cc1 [Indocin, Indometacin]	significantly increased	almost recovered to normal level	
	87.5%	extremely low inward current	lower	not significant	89.2%	extremely low inward current	O=c1c(-c2ccc(O)cc2)coc2c([C@@H]3O[C@H](CO)[C@@H](O)[C@H](O)[C@H]3O)c(O)ccc12 [puerarin]	significantly increased	almost recovered to normal level	no significant difference
